Laboratory results from patent publication US9605025B2, “Antagonist peptide of the bond between CD47 and a protein belonging to the thrombospondin family” (Universite de Reims Champagne Ardenne, priority 2011, dated 2017).
Blank lines part the entries; values can stand above or below the substance they belong to.

What was measured:
[1] = target: T1, TSP1/CD47 complexes (Homo sapiens, UniProt P07996); test: immunoprecipitation of TSP1/CD47 complexes with anti-CD47 antibody and Western Blot in MDA-MB-231 cells; format: cell-based; settings: MDA-MB-231 breast cancer cells, 100 μM peptide
T1 construct: endogenous in cells; host or cells: MDA-MB-231 breast cancer cells
Procedure: FIG. 5 is a photo illustration showing the inhibition of the biomolecular interaction between the TSP1 and the CD47 receptor of the MDA-MB-231 breast cancer cells. The cells are incubated for 2 hours with […] 100 μM of the antagonist peptide according to the invention. The TSP1/CD47 complexes are then immunoprecipitated using an anti-CD47 antibody, then the presence of TSP1 and CD47 is analyzed using the Western Blot technique.
Thus, MDA-MB-231 cells corresponding to cells from a breast cancer were incubated for 24 hours with or without the dodecapeptide according to this invention. In particular, the peptide used was the one with sequence:
Immunoprecipitation of the complexes, with an antibody directed against the CD47, then an analysis of the TSP1 and CD47 proteins by the Western Blot method were then done.

[2] = tested on: B16-F1 mouse melanoma; test: B16-F1 mouse melanoma model in syngeneic C57Bl/6 mice; format: in vivo
Procedure: FIG. 6 is a photo illustration showing the action of the cyclized antagonist peptide on mouse melanoma cells. After a subcutaneous injection of 250,000 B16-F1 mouse melanoma cells into syngeneic C57Bl/6 mice, intraperitoneal administrations of 10 mg/kg of the antagonist were given on days 3, 5 and 7. The mice were then sacrificed and the tumors photographed on day 20.
FIG. 7 is a photo illustration corresponding to an MRI analysis of an untreated tumor (on the left) and a tumor treated with the cyclized peptide of interest on day 12. An arrow points to the necrotic area.
was also tested directly in vivo on a B16-F1 mouse melanoma model injected into syngeneic C57Bl/6 mice.
FIG. 7 allows a comparison, thanks to a magnetic resonance imaging (RMI) analysis, of the tumor taken from the animal not treated with the tumor taken from the animal treated with the cyclized peptide by means of a disulfide bridge on day 12 after the injection of the tumor cells.

[3] = tested on: thyroid carcinoma cells (FTC-133); test: viability of FTC-133 thyroid carcinoma cells treated with camptothecin or doxorubicin; format: cell-based, human; settings: FTC-133, 5 μM camptothecin or doxorubicin; for viability of the tumor cells: 100 μM peptide
Procedure: FIG. 2 is a graph illustration showing the role of the peptide 4N1 (KRFYVVMWK (SEQ ID NO: 5), derived from the C-terminal domain of TSP1, and the CD47 receptor on the regulation of apoptosis induced by camptothecin (Cpt) or doxorubicin (Dox). To achieve this, thyroid carcinoma cells (FTC-133) were incubated with 5 μM of one or other of the drugs and 100 μM of test peptide 4N1 with or without B6H12 antibody (100 μg/mL) blocking the CD47 receptor. The same experiment was performed with a control peptide 4NGG (KRFYGGMWK SEQ ID NO:6), which is incapable of binding the CD47.
The inventors therefore sought to understand the role of the peptide 4N1 and the CD47 receptor in the inhibition of the apoptosis of cancer cells, and in particular the FTC-133 cells of human thyroid carcinoma (Rath et al., 2006).

[4] = tested on: follicular thyroid carcinoma cells; test: caspase-3 activity (marker of apoptosis) in follicular thyroid carcinoma cells treated with camptothecin or doxorubicin; format: cell-based, human; settings: in the presence of doxorubicin or camptothecin, with vs without TSP1
Procedure: FIG. 1 is a graph illustration showing the caspase-3 activity, a marker of apoptosis, obtained by measuring the quantity of para-nitroaniline released per hour per μg of protein (y-axis). The caspase-3 activity is measured on follicular thyroid carcinoma cells in the presence of an anticancer molecule inducing apoptosis, camptothecin (Cpt) or doxorubicin (Dox) in the presence or absence of TSP1.
The latter therefore reduces the rate of apoptosis of the thyroid carcinoma cells subjected to an anti-cancer therapy.

T1 sequence (P07996 19-1170, one chain of several): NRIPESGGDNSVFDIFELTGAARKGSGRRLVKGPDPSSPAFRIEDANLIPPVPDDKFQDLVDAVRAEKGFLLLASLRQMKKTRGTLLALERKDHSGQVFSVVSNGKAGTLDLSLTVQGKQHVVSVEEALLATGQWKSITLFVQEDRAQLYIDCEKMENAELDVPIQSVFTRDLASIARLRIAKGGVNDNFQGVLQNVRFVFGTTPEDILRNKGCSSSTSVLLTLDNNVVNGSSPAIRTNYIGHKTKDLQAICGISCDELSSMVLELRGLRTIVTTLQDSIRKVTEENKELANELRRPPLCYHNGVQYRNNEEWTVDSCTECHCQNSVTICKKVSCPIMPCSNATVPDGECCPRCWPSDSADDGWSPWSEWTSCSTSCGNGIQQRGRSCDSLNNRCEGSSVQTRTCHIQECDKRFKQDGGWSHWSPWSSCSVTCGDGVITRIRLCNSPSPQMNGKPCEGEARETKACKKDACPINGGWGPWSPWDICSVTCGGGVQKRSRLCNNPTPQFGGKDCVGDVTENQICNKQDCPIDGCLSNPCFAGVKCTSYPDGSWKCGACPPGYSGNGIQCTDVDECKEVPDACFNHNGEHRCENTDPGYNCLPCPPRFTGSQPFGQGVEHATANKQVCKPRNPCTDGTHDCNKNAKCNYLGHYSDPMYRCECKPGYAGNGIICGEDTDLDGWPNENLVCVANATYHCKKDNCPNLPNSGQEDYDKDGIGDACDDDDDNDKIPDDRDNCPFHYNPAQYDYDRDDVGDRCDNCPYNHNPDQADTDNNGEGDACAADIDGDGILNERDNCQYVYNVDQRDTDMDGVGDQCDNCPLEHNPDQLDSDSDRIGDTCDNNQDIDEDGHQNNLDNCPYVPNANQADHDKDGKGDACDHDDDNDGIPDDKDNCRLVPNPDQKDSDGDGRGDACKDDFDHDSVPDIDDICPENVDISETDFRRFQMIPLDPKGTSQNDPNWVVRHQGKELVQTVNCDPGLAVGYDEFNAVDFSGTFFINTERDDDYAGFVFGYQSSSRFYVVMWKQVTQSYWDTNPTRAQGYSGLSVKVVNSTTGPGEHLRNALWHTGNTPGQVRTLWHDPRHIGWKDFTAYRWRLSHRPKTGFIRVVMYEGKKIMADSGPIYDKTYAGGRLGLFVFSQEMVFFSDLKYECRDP

Substance: CEVSQLLKGDAC [SEQ ID NO: 2]
- TSP1 detected by Western Blot after immunoprecipitation with anti-CD47 antibody (TSP1/CD47 interaction) [1]: prevents the molecular interaction between the TSP1 protein and the CD47 receptor
- mice showing a large necrotic area located in the tumor ([2]; 10 mg/kg intraperitoneal on days 3, 5 and 7, tumors on day 20): 4/8
- necrotic area in the tumor by MRI analysis ([2]; day 12 after the injection of the tumor cells): has a necrotic area

- TSP1 detected by Western Blot after immunoprecipitation with anti-CD47 antibody (TSP1/CD47 interaction) [1]: TSP1 is no longer detected
Substance: IEVSQLLKGDAS (Antagonist peptide of the bond between a receptor CD47 and a protein belonging to the thrombospondin family) [SEQ ID NO: 1]

Substance: KRFYGGMWK [4NGG]
- viability of the tumor cells [3]: does not have any effect

Substance: KRFYVVMWK [4N1]
- viability of the tumor cells [3]: viability of the tumor cells is greater
- protection of the tumor cells against the anti-cancer drugs ([3]; 100 μM peptide plus B6H12 antibody (100 μg/mL) blocking CD47): no longer protects the tumor cells

Substance: TSP1: thrombospondin-1, extracellular matrix glycoprotein binding the CD47 receptor
- caspase-3 activity (para-nitroaniline released per hour per μg of protein) [4]: inhibited considerably
